{
  "source": "paper PMC10765884",
  "about": "“MC180295 is a highly potent and selective CDK9 inhibitor with preclinical in vitro and in vivo efficacy in cancer” (Clinical Epigenetics, 2024)",
  "key": {"[1]": {"molecular_target": "CDK9/cyclin T (Homo sapiens, UniProt P50750)", "sequence (O60563 whole entry)": "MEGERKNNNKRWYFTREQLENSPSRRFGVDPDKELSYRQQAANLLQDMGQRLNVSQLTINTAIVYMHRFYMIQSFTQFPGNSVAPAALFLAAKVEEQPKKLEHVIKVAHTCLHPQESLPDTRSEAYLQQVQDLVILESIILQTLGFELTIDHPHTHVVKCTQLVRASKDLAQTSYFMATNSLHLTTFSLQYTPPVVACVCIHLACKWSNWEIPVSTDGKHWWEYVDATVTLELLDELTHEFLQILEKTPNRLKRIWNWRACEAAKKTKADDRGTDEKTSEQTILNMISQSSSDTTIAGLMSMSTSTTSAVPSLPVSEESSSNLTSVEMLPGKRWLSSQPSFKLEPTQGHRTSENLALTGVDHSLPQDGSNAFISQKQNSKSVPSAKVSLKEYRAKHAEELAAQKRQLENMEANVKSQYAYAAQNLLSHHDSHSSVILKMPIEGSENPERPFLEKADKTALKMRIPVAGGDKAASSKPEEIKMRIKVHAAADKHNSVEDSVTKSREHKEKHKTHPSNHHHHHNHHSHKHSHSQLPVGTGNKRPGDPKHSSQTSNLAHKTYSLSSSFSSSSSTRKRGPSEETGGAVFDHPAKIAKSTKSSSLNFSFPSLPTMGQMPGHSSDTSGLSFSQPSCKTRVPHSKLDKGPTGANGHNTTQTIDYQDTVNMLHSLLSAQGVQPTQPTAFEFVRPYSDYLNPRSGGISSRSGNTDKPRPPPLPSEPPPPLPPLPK", "sequence (P50750 whole entry)": "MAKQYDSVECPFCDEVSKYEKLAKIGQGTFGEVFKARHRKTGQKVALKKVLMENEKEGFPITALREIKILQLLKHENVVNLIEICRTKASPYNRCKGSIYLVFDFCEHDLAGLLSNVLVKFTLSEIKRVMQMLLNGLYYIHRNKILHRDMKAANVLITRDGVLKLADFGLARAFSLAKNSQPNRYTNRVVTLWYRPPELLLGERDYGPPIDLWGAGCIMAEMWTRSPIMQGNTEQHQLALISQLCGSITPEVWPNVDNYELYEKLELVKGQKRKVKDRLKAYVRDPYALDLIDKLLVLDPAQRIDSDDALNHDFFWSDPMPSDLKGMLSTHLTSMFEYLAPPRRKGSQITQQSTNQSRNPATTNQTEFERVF", "test": "CDK9/cyclin T inhibition, two independent assays", "type": "biochemical", "protocol": "CDK enzymatic assays were performed by Reaction Biology Corp. (Malvern, PA), using 10 µM ATP for determining MC180295 IC50 values for each CDK family member for which assays were available. Kinase enzymatic assays were also performed by Nanosyn (Santa Clara, CA), using microfluidic technology and MC180295 IC50 curves against 10 CDKs. Selectivity against CDK9 was confirmed for the enantiomers at Reaction Biology Corp. (Malvern, PA)."}, "[2]": {"test": "Pharmacokinetics in mice", "type": "in vivo", "details": "mouse, plasma", "protocol": "Fig. 1 MC180295 enzymatic/growth inhibition and pharmacokinetics. A In vitro activity (IC50 values) of MC180295 against a panel of CDKs. B MC180295 IC50 values against 46 cell lines from 6 different cancer types. C Pharmacokinetic analyses after oral or IV administration of low-dose (1 mg/kg IV or 2.5 mg/kg oral) MC180295 to mice. D Pharmacokinetic analyses after IP administration of 10 mg/kg MC180295 to mice.\nWe next studied the pharmacokinetics (PK) of MC180295."}, "[3]": {"test_system": "MV4-11-luc cells", "test": "MV4-11-luc AML model in NSG mice", "details": "MV4-11-luc in NSG mice, 20 mg/kg i.p. q.o.d.; for survival: 20 mg/kg", "method": "E NSG mice were inoculated (i.p.) with 5 × 10^5 MV4-11-luc cells. Four days later, when substantial tumor burden was evident by bioluminescence imaging, MC180379, MC180380, or vehicle were administered (i.p.) q.o.d at 20 mg/kg. Luciferase expression was quantified and calculated. F Mouse survival in days. […] Significances were calculated using log-rank (Mantel-Cox) or Student’s t tests.\n0.5 mg/kg DAC was administered (i.p.) daily. […] B Mouse survival in days. 20 mg/kg MC180295 was administered (i.p.) q.o.d. 0.5 mg/kg DAC was administered (i.p.) daily. C NSG mice were inoculated (i.p.) with 5 × 10^5 MV4-11-luc cells. Four days later, when substantial tumor burden was evident by bioluminescence imaging, MC180295 (20 mg/kg) or vehicle were administered (i.p.) every other day. 0.5 mg/kg DAC was administered (i.p.) daily. Luciferase expression was quantified and calculated. […] 0.5 mg/kg DAC was administered (i.p.) daily. Mouse survival shown in days. Significances were calculated using log-rank (Mantel-Cox) or Student's t tests. Data are shown as means ± SEMs. ***p < 0.001\nBoth female and male NOD.Cg-Prkdcscid Il2rgtm1Wjl/SzJ (NSG) mice were used for the experiments. Age- and gender-matched mice were randomly assigned to each group. 8–10-week-old NSG mice were tail vein-injected with 5 × 10^5 MV4-11-luc cells. […] Natural death or accumulation of ascites fluid were used as endpoints."}, "[4]": {"test": "Kinetic solubility", "type": "physicochemical", "details": "Dulbecco's PBS, aqueous buffer, kinetic from dmso stock; PBS (pH 7.4), Free Base", "protocol": "The kinetic solubility of test compounds was determined by adapting Millipore® application note protocol AN1730EN00. Liquid handling was performed using PerkinElmer® Verispan and MDT workstations. In triplicate, 4 µL of 10 mM test compounds in DMSO were added to 196 µL of buffer (Dulbecco’s’ PBS or water). The 200 µM compound solutions, in 2% DMSO, were incubated with gentle shaking for 90 min at RT before vacuum filtration in 96-well polypropylene collection plates, using a Millipore® filtration manifold. 160 µL of filtrate was transferred to a 96-well UV Star analysis plate (Greiner Bio-One® plate # 655,801) containing 40 µL acetonitrile. Standard curves were generated by adding 4 µL of 50 × of five concentrations of test compounds, in DMSO, to 40 µL acetonitrile in UV Star plates, followed by 156 µL buffer. Absorbances at […] were measured using a Molecular Devices® Spectramax Plus microplate reader with Softmax Pro v. 5.4.5 software. Absorbance readings were summed to generate the signal. Test sample concentrations were interpolated from linear standard curves using GraphPad® Prism v 5.04."}},
  "note": "Entries after “also recorded” stand apart in the source; their conditions may differ. Like-named read-outs stand apart in the source and are kept apart here.",
  "data": [
    {"compound": "Nc1nc(N[C@H]2C[C@@H]3CC[C@H]2C3)sc1C(=O)c1ccccc1[N+](=O)[O-]", "note": "(relative stereo) [MC180295]", "values": [
      {"measurement": "selectivity for CDK9, compared to other CDKs", "setting": "[1]", "result": 20, "unit": "fold"},
      {"measurement": "IC50", "setting": "[1]; based on two independent assays, read-out: IC50 toward CDK9/cyclin T", "result": "3 to 12", "unit": "nM"},
      {"measurement": "AUC(0-t)", "setting": "[2]; IP 10 mg/kg", "result": 1370, "unit": "ng·h/mL"},
      {"measurement": "Cmax", "setting": "[2]; IP 10 mg/kg", "result": 1070, "unit": "ng/mL"},
      {"measurement": "Tmax", "setting": "[2]; IP 10 mg/kg", "result": 0.17, "unit": "h"},
      {"measurement": "AUC(0-inf)", "setting": "[2]; IP 10 mg/kg, read-out: AUC 0-inf_obs", "result": 3840, "unit": "ng·h/mL"},
      {"measurement": "AUC", "setting": "[2]; IV - 1mg/kg", "result": 110, "unit": "ng·h/mL"},
      {"measurement": "Cmax", "setting": "[2]; IV - 1mg/kg", "result": 210, "unit": "ng/mL"},
      {"measurement": "clearance", "setting": "[2]; IV - 1mg/kg", "result": 3.67, "unit": "mL/min"},
      {"measurement": "Vd", "setting": "[2]; IV - 1mg/kg, read-out: Vss", "result": 0.19, "unit": "L"},
      {"measurement": "AUC", "setting": "[2]; Oral - 2.5mg/kg", "result": 71, "unit": "ng·h/mL"},
      {"measurement": "Cmax", "setting": "[2]; Oral - 2.5mg/kg", "result": 96, "unit": "ng/mL"},
      {"measurement": "Tmax", "setting": "[2]; Oral - 2.5mg/kg", "result": 0.5, "unit": "h"},
      {"measurement": "bioavailability", "setting": "[2]; Oral - 2.5mg/kg vs IV - 1mg/kg, as fraction", "result": 26, "unit": "%"},
      {"measurement": "half-life", "setting": "[2]; ip, 10 mg/kg, IP 10 mg/kg, read-out: T1/2 (converted)", "result": 15.8, "unit": "h"},
      {"measurement": "half-life", "setting": "[2]; ip, 10 mg/kg, IP at 10 mg/kg, read-out: half-life (converted)", "result": 15.8, "unit": "h"},
      {"measurement": "half-life", "setting": "[2]; iv, 1 mg/kg, IV - 1mg/kg, read-out: T1/2 (converted)", "result": 0.86, "unit": "h"},
      {"measurement": "half-life", "setting": "[2]; iv, 1 mg/kg, IV dose of 1 mg/kg, read-out: half-life (converted)", "result": 0.86, "unit": "h"},
      {"measurement": "bioavailability", "setting": "[2]; oral dose of 2.5 mg/kg", "result": 26, "unit": "%"},
      {"measurement": "half-life", "setting": "[2]; po, 2.5 mg/kg, Oral - 2.5mg/kg, read-out: T1/2 (converted)", "result": 1.32, "unit": "h"},
      {"measurement": "half-life", "setting": "[2]; po, 2.5 mg/kg, oral dose of 2.5 mg/kg, read-out: half-life (converted)", "result": 1.3, "unit": "h"},
      {"measurement": "survival", "setting": "[3]", "result": "significantly extended survival"}
    ]},
    {"compound": "Nc1nc(N[C@@H]2C[C@H]3CC[C@@H]2C3)sc1C(=O)c1ccccc1[N+](=O)[O-]", "note": "[MC180379]", "values": [
      {"measurement": "solubility at 90 min", "setting": "[4]", "result": 53.5, "unit": "µM"}
    ]},
    {"compound": "Nc1nc(N[C@H]2C[C@@H]3CC[C@H]2C3)sc1C(=O)c1ccccc1[N+](=O)[O-]", "note": "[MC180380]", "values": [
      {"measurement": "solubility at 90 min", "setting": "[4]", "result": 52.6, "unit": "µM"},
      {"measurement": "tumor burden, as measured by luciferase intensities", "setting": "[3]", "result": "lower"},
      {"measurement": "survival", "setting": "[3]", "result": "significantly extended survival; also recorded: better survival"}
    ]}
  ]
}
